Source: paper PMC5735376, “Dual Level Statistical Investigation of Equilibrium Solubility in Simulated Fasted and Fed Intestinal Fluid” (Molecular Pharmaceutics, 2017)
Where two headings read alike, the source gives them in different places.

Key:
[1] = Equilibrium solubility in simulated intestinal fluid, dual level DoE, combined fasted and fed arm; format: physicochemical; settings: for significant DoE factors influencing solubility: combined arm (seven possible factors per drug), significance ±2; for significant two way factor interactions on solubility: eight two way interactions, Figure 4
Description: (§1) For each media parameter (bile salt, lecithin, sodium oleate, monoglyceride, cholesterol, pH and BS: PL ratio) lower and upper limit concentration values for fasted and fed states were defined, Table 1. Using Minitab 17.2.1 and a custom experimental design, a 1/16 of the full factorial DoE with the seven factors and two levels (lower and upper limits) was constructed (8 experiments around the upper and lower levels plus two center points) separately for the fasted and the fed states. These two tables were then applied as an input for a factorial custom design of experiment which combined the fasted and fed using all 20 data points to provide an overall analysis. The study therefore consists of three arms, two smaller (10 data point) fasted and fed arms, which are then merged into a larger (20 data point) combined arm.
(§2) When designing and analyzing the DoE, only a factor’s main effects and 2 way interactions have been considered and 3 way interactions or more were not included. For each DoE the magnitude for each factor’s effect on equilibrium solubility was determined by the standardized effect value for all of the individual factors and the significant 2-way interactions. This value was used to articulate whether these factors are increasing or decreasing drug solubility.
(§3) The solution was prepared by the addition of an excess amount (above the estimated solubility) of solid for each compound investigated to a centrifuge tube (15 mL Corning Centristar cap, polypropylene RNase/DNase free, nonpyrogenic) followed by the addition of each component of the simulated intestinal fluid media according to the run order generated by the DoE. After all of the media components were added, pH was adjusted to 5, 6, or 7 according to the run order using 0.1 M HCl or 0.1 M KOH and tubes were capped and placed on an orbital shaker (OS 5 basic Yellowline, IKA, Germany) for 1 h after which the pH was readjusted if required. The 20 different tubes were then shaken in a tube rotator for 24 h at 40 rpm at 37 °C to simulate intestinal fluid conditions. After 24 h, a 1 mL amount was taken from each of the 20 tubes and transferred to a 1.5 mL Eppendorf tube then centrifuged at 15 000 rpm for 5 min. Following centrifugation 0.5 mL of the supernatant solution was transferred to an HPLC vial to analyze drug solubility using HPLC (Table 4).

[2] = set-up: method as in ref 14, Figure 2; settings: fed, published; Figure 2; cited from earlier work
[3] = Equilibrium solubility in simulated intestinal fluid, dual level DoE, fed arm; format: physicochemical; settings: fed, current study (Figure 3)
Description: as §1, §2, §3

[4] = Equilibrium solubility in simulated intestinal fluid, dual level DoE, fasted arm; format: physicochemical; settings: for statistical significance of DoE factor BS:PL on equilibrium solubility / statistical significance of DoE factor bile salt on equilibrium solubility / statistical significance of DoE factor cholesterol on equilibrium solubility / statistical significance of DoE factor lecithin on equilibrium solubility / statistical significance of DoE factor monoglyceride on equilibrium solubility / statistical significance of DoE factor pH on equilibrium solubility / statistical significance of DoE factor sodium oleate on equilibrium solubility: fasted, current study (Figure 3)
Description: as §1, §2, §3

[5] = cited from earlier work
[6] = set-up: method as in ref 13, Figure 2; settings: fasted, published; Figure 2; cited from earlier work
[7] = Statistical comparison of equilibrium solubility data sets (Mann-Whitney test / two-sample t-test); format: physicochemical; settings: for statistical comparison of fasted against fed equilibrium solubility: current dual level DoE, where significant, fasted solubility lower than fed; for statistical comparison of dual level fasted with published fasted equilibrium solubility: current fasted arm vs published fasted DoE
Description: The Kolmogorov normality test was used in Minitab to assess the normality distribution of each data set. A Mann–Whitney test was used to evaluate the median between two data sets (not normally distributed) and the two-sample t-test was used to evaluate the mean of two data sets (normally distributed).

| statistical significance of DoE factor BS:PL on equilibrium solubility [3] | statistical significance of DoE factor bile salt on equilibrium solubility [3] | statistical significance of DoE factor cholesterol on equilibrium solubility [3] | statistical significance of DoE factor lecithin on equilibrium solubility [3] | statistical significance of DoE factor monoglyceride on equilibrium solubility [3] | statistical significance of DoE factor pH on equilibrium solubility [3] | statistical significance of DoE factor sodium oleate on equilibrium solubility [3] | statistical significance of DoE factor BS:PL on equilibrium solubility [4] | statistical significance of DoE factor bile salt on equilibrium solubility [4] | statistical significance of DoE factor cholesterol on equilibrium solubility [4] | statistical significance of DoE factor lecithin on equilibrium solubility [4] | statistical significance of DoE factor monoglyceride on equilibrium solubility [4] | statistical significance of DoE factor pH on equilibrium solubility [4] | statistical significance of DoE factor sodium oleate on equilibrium solubility [4] | Compound | statistical significance of DoE factor bile salt on equilibrium solubility [2] | statistical significance of DoE factor lecithin on equilibrium solubility [2] | statistical significance of DoE factor monoglyceride on equilibrium solubility [2] | statistical significance of DoE factor pH on equilibrium solubility [2] | statistical significance of DoE factor bile salt on equilibrium solubility [6] | statistical significance of DoE factor lecithin on equilibrium solubility [6] | further results |
| --- | --- | --- | --- | --- | --- | --- | --- | --- | --- | --- | --- | --- | --- | --- | --- | --- | --- | --- | --- | --- | --- |
| NS ^e | NS ^e ^g | NS ^e | NS ^e | NS ^e ^g | NS ^e ^g | NS ^e ^g | S ^d | NS ^e ^g | S ^d | NS ^e ^g | NS ^e | S ^d | S ^d | O=C1NC(=O)C(c2ccccc2)(c2ccccc2)N1 [phenytoin] | S ^d ^g | NS ^e | S ^d ^g | S ^d ^g | S ^d ^g | S ^d ^g | variability of equilibrium solubility ([1]; across DoE media, fasted or fed arm, Figures 1 and 2): low solubility variability; significant DoE factors influencing solubility [1]: no significant factors; significant two way factor interactions on solubility ([1]; combined arm): significant interactions; statistical significance of DoE factor sodium oleate on equilibrium solubility [2]: S ^d ^g; direction of pH effect on solubility (standardized effect) ([4]; fasted and fed study arms, Figure 3): negative effect; direction of cholesterol effect on solubility (standardized effect) ([4]; fasted arm, Figure 3): significant negative solubility effect; pKa ([5]; no reference given): 8.1; statistical significance of DoE factor pH on equilibrium solubility [6]: S ^d; statistical significance of DoE factor sodium oleate on equilibrium solubility [6]: S ^d; statistical comparison of fasted against fed equilibrium solubility [7]: no statistically significant difference; statistical comparison of dual level fasted with published fasted equilibrium solubility [7]: significantly different; statistical comparison of dual level fed with published fed equilibrium solubility ([7]; current fed arm vs published fed DoE): significantly different |
| NS ^e | NS ^e ^g | NS ^e | NS ^e | NS ^e | NS ^e | NS ^e ^g | NS ^e | NS ^e ^g | NS ^e | NS ^e ^g | NS ^e | NS ^e ^g | NS ^e ^g | CN1CC(=O)N2[C@H](c3ccc4c(c3)OCO4)c3[nH]c4ccccc4c3C[C@@H]2C1=O [tadalafil] | S ^d ^g | NS ^e | NS ^e | NS ^e | S ^d ^g | S ^d ^g | significance of sodium oleate for solubility ([1]; combined arm, Figure 4, significance ±2, positive solubility impact): significant; statistical significance of DoE factor sodium oleate on equilibrium solubility [2]: S ^d ^g; significant DoE factors influencing solubility ([4]; fasted and fed study arms together (14 possible values per drug), significance ±4): no significant factors; pKa ([5]; reported): 15; statistical significance of DoE factor pH on equilibrium solubility [6]: S ^d ^g; statistical significance of DoE factor sodium oleate on equilibrium solubility [6]: S ^d ^g; statistical comparison of fasted against fed equilibrium solubility [7]: significant difference; statistical comparison of dual level fasted with published fasted equilibrium solubility [7]: significantly different |
| NS ^e | NS ^e ^g | NS ^e | NS ^e | NS ^e | NS ^e ^g | NS ^e | NS ^e | NS ^e ^g | S ^d | NS ^e ^g | S ^d | S ^d | NS ^e ^g | COc1cc(C(=O)NS(=O)(=O)c2ccccc2C)ccc1Cc1cn(C)c2ccc(NC(=O)OC3CCCC3)cc12 [zafirlukast] | S ^d ^g | NS ^e | NS ^e | S ^d ^g | S ^d ^g | S ^d ^g | significant DoE factors influencing solubility [1]: no significant factors; significant two way factor interactions on solubility ([1]; combined arm): significant interactions; direction of cholesterol effect on solubility (standardized effect) ([4]; fasted arm, Figure 3): positive effect; direction of monoglyceride effect on solubility (standardized effect) ([4]; fasted arm, Figure 3): negative effect; pKa ([5]; reported): 4; statistical significance of DoE factor pH on equilibrium solubility [6]: S ^d; statistical significance of DoE factor sodium oleate on equilibrium solubility [6]: S ^d ^g; statistical comparison of fasted against fed equilibrium solubility [7]: significant difference |
